Experimental data reported in patent US10231954B2, “Neurodegenerative therapies” (LYTIX BIOPHARMA AS, priority 2014, dated 2019).
Read-outs that look alike come from different tables or passages of the source.

Tests used:
Format in all cases: biochemical
PKBa = PKBa (Homo sapiens, UniProt P31749); assay: Kinase profiling PKBa; conditions: for remaining activity at 100 µM: read-out: residual kinase activity, PKBa
Source text: (§1) Any value less that 25 is considered to be highly significant inhibition.

PKA = PKA (Homo sapiens, UniProt P17612); assay: Kinase profiling PKA; conditions: for remaining activity at 100 µM: read-out: residual kinase activity, PKA
Source text: as §1

PKCa = PKCa (Homo sapiens, UniProt P17252); assay: Kinase profiling PKCa; conditions: for remaining activity at 100 µM: read-out: residual kinase activity, PKCa
Source text: as §1

PKD1 = molecular target: T1, PKD1 (Homo sapiens, UniProt Q15139); assay: Kinase profiling PKD1; conditions: for remaining activity at 100 µM: read-out: residual kinase activity, PKD1
T1 sequence (Q15139 1-912): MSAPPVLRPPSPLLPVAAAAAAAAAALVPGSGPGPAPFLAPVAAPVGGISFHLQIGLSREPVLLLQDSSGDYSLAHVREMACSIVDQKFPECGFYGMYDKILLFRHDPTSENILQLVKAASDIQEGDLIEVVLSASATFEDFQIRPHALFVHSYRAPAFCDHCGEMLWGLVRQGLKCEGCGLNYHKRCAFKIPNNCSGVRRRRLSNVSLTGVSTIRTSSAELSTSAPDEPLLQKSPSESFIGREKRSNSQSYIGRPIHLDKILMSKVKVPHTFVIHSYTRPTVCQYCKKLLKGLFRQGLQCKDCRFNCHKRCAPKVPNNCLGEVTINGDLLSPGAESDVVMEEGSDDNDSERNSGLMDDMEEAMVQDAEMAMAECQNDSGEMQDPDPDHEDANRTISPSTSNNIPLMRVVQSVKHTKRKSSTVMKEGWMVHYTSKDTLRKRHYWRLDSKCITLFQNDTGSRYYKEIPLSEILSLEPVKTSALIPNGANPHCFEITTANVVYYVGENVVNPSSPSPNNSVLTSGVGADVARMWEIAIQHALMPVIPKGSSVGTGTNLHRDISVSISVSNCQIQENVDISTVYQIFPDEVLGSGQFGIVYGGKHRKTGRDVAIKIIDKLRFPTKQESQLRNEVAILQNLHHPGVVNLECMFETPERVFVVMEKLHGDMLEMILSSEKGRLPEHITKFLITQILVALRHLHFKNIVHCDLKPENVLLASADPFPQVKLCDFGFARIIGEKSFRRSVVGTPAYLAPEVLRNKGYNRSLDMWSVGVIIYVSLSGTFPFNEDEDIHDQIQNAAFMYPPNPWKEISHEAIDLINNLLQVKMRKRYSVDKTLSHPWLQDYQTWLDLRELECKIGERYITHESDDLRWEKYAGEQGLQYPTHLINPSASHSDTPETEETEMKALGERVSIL
Source text: as §1

CAMKKb = CAMKKb (Homo sapiens, UniProt Q96RR4); assay: Kinase profiling CAMKKb; conditions: for remaining activity at 100 µM: read-out: residual kinase activity, CAMKKb
Source text: as §1

CAMK1 = CAMK1 (Homo sapiens, UniProt Q14012); assay: Kinase profiling CAMK1; conditions: for remaining activity at 100 µM: read-out: residual kinase activity, CAMK1
Source text: as §1

PLK1 = PLK1 (Homo sapiens, UniProt P53350); assay: Kinase profiling PLK1; conditions: for remaining activity at 100 µM: read-out: residual kinase activity, PLK1
Source text: as §1

CK2 = assay: Kinase profiling CK2
Source text: as §1

PAK4 = PAK4 (Homo sapiens, UniProt O96013); assay: Kinase profiling PAK4; conditions: for remaining activity at 100 µM: read-out: residual kinase activity, PAK4
Source text: as §1

BTK = BTK (Homo sapiens, UniProt Q06187); assay: Kinase profiling BTK; conditions: for remaining activity at 100 µM: read-out: residual kinase activity, BTK
Source text: as §1

EPH-A2 = EPH-A2 (Homo sapiens, UniProt P29317); assay: Kinase profiling EPH-A2; conditions: for remaining activity at 100 µM: read-out: residual kinase activity, EPH-A2
Source text: as §1

[1] = 100 micromolar inhibitor concentration, 100 is no change
[2] = 100 micromolar inhibitor, 100 = no change

Sequence of CAMK1 (Q14012 whole entry, species assumed): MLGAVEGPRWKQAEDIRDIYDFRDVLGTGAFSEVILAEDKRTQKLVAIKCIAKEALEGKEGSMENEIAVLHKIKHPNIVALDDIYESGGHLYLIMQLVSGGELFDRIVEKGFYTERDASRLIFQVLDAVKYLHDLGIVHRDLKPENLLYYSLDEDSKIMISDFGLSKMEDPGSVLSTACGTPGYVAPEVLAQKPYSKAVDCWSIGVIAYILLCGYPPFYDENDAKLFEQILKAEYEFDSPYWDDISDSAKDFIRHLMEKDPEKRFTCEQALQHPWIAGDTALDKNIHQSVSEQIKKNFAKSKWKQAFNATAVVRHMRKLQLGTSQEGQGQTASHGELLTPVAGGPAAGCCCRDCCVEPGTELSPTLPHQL
Sequence of PLK1 (P53350 whole entry, species assumed): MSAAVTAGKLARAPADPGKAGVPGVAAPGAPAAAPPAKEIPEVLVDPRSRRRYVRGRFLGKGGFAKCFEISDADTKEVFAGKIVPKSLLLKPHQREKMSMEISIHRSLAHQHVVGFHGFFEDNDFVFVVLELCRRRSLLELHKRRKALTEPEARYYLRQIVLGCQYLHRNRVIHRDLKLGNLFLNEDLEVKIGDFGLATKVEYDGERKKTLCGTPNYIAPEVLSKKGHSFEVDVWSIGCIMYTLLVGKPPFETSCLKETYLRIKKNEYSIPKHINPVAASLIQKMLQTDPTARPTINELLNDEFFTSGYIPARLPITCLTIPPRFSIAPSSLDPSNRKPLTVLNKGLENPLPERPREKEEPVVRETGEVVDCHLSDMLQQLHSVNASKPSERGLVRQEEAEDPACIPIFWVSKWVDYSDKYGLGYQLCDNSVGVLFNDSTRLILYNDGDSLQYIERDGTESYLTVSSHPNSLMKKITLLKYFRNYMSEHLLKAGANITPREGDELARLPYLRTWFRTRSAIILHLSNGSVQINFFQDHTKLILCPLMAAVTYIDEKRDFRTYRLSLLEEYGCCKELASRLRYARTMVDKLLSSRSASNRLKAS
Sequence of CAMKKb (Q96RR4 whole entry, species assumed): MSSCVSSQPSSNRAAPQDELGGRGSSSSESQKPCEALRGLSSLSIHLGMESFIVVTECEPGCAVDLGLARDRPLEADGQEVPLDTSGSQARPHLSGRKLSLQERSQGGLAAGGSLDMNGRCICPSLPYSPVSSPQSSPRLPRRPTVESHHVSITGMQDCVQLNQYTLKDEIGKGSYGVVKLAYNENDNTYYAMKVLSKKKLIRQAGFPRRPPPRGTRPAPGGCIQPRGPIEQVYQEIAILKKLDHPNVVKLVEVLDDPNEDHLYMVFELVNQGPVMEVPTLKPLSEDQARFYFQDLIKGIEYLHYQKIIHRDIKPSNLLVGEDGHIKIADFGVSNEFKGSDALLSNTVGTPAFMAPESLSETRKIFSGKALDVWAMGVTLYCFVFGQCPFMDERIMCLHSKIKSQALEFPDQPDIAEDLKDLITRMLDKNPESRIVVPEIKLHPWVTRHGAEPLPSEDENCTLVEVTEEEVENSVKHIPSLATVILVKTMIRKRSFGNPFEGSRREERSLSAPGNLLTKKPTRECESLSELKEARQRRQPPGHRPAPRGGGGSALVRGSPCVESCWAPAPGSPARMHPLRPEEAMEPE
Sequence of EPH-A2 (P29317 24-976, species assumed): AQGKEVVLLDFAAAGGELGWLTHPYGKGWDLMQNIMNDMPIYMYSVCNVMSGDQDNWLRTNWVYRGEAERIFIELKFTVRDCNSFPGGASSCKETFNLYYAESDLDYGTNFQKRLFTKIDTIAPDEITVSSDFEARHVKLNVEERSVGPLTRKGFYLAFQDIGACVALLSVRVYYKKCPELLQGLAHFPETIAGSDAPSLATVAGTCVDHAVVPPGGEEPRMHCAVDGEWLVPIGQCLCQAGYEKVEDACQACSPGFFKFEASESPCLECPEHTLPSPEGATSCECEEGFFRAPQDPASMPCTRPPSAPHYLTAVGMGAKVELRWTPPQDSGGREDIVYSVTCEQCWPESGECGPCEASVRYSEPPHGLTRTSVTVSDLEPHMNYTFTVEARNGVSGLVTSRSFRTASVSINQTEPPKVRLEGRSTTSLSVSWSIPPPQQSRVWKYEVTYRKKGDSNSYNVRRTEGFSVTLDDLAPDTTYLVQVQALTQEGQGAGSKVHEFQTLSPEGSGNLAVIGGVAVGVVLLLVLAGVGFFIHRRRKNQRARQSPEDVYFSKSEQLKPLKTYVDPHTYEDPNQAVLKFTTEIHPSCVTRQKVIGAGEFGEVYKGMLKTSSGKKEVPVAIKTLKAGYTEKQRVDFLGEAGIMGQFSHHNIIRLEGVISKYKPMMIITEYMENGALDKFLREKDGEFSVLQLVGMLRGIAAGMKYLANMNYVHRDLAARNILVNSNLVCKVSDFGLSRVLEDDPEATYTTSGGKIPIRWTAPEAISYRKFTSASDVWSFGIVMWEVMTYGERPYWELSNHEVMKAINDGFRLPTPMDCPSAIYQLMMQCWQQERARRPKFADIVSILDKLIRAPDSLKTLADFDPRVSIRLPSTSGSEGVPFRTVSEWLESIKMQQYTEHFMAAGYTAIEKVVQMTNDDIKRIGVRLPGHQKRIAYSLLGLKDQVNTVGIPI
Sequence of BTK (Q06187 whole entry, species assumed): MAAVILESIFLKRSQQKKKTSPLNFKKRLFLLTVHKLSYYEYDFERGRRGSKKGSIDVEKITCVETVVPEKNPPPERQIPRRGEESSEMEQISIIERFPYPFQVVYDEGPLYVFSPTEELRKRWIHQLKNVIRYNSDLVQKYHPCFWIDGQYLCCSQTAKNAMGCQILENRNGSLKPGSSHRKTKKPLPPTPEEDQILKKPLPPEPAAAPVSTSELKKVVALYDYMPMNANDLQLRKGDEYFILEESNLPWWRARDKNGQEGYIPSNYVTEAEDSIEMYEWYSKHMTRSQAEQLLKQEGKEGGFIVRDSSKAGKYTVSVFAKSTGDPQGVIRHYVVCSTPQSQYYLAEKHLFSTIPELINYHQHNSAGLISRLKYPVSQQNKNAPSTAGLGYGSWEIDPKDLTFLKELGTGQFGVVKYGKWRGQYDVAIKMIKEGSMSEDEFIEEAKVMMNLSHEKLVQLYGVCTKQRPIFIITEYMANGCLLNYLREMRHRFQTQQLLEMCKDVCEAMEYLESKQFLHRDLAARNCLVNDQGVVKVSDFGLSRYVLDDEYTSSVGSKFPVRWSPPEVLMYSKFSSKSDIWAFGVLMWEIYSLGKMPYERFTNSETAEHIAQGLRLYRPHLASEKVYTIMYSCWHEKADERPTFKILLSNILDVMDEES
Sequence of PKBa (P31749 whole entry): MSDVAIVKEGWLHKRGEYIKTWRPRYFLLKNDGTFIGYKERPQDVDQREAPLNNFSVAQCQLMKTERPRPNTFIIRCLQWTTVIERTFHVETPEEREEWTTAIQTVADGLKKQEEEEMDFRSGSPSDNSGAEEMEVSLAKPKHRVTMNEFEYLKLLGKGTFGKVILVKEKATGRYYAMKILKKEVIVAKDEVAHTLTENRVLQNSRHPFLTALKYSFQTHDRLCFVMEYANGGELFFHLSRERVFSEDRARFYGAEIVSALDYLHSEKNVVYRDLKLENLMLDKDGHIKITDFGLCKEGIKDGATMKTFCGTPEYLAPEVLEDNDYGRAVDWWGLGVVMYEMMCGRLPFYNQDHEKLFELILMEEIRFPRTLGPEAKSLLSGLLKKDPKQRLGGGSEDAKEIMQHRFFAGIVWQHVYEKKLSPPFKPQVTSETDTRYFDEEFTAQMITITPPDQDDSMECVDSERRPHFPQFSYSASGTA
Sequence of PAK4 (O96013 whole entry, species assumed): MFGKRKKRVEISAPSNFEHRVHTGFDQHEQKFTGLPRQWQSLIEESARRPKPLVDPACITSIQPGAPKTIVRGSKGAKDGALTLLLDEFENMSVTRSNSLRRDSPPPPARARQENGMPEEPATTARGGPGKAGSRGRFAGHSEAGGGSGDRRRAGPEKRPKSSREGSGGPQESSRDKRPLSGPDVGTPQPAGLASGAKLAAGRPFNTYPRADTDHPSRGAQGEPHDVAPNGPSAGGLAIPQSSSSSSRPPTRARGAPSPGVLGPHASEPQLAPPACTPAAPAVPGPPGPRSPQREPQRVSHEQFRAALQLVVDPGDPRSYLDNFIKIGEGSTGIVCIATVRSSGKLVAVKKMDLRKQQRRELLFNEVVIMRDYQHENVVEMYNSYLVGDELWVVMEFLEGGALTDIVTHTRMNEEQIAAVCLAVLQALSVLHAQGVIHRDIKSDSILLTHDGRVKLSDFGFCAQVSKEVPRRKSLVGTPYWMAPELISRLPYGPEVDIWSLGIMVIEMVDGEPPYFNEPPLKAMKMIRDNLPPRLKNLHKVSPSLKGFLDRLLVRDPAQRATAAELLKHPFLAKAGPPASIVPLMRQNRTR

SMILES | residual kinase activity, PKBa (PKBa; [1]) | residual kinase activity, PKA (PKA; [1]) | residual kinase activity, PKCa (PKCa; [1]) | residual kinase activity, PKD1 (PKD1; [1]) | residual kinase activity, CAMKKb (CAMKKb; [1]) | residual kinase activity, CAMK1 (CAMK1; [1]) | residual kinase activity, PLK1 (PLK1; [1]) | residual kinase activity, CK2 (CK2; [1]) | residual kinase activity, PAK4 (PAK4; [1]) | residual kinase activity, BTK (BTK; [1]) | residual kinase activity, EPH-A2 (EPH-A2; [1]) | further results
O=C(Nc1nc2ccc(F)cc2s1)c1ccccc1 [Compound 03-92] | 99 | 96 | 96 | 111 | 80 | 97 | 92 | 90 | 111 | 73 | 98 | –
CC(=O)Nc1nc2ccc(F)cc2s1 [Compound 03-94] | 94 | 93 | 98 | 105 | 67 | 86 | 93 | 91 | 66 | 107 | 94 | –
COc1ccc2sc(NC(=O)c3ccccc3)nc2c1 [Compound 03-95] | 80 | 83 | 53 | 92 | 54 | 76 | 77 | 78 | 107 | 75 | 91 | –
COc1ccc2nc(NC(=O)c3ccccc3)sc2c1 [Compound 03-98] | 103 | 90 | 89 | 104 | 45 | 68 | 102 | 88 | 37 | 56 | 95 | –
O=C(Nc1nc2ccc(C(F)(F)F)cc2s1)c1ccccc1 [Compound 03-99] | 91 | 96 | 114 | 114 | 86 | 84 | 112 | 80 | 154 | 79 | 110 | –
O=C(Nc1nc2cc(O)ccc2s1)c1ccccc1 [Compound 03-102] | 88 | 93 | 72 | 60 | 32 | 72 | 83 | 75 | 67 | 81 | 65 | –
COC(=O)c1cccc(C(=O)Nc2nc3ccc(C(F)(F)F)cc3s2)c1 [Compound 03-105, Methyl 3-((6-(trifluoromethyl)benzo[d]thiazol-2-yl)carbamoyl)benzoate] | – | – | – | – | – | – | – | 89 | – | – | – | remaining activity at 100 µM (PKBa): 92%; remaining activity at 100 µM (PKA): 96%; remaining activity at 100 µM (PKCa): 96%; remaining activity at 100 µM (PKD1): 90%; remaining activity at 100 µM (CAMKKb): 48%; remaining activity at 100 µM (CAMK1): 92%; remaining activity at 100 µM (PLK1): 101%; remaining activity at 100 µM (PAK4): 89%; remaining activity at 100 µM (BTK): 95%; remaining activity at 100 µM (EPH-A2): 100%
N#Cc1ccc2nc(NC(=O)c3ccccc3)sc2c1 [Compound 03-106] | 67 | 91 | 100 | 86 | 67 | 69 | 103 | 12 | 94 | 49 | 89 | –
COC(=O)c1cccc(C(=O)Nc2nc3cc(OC)ccc3s2)c1 [Compound 03-108] | 106 | 92 | 85 | 102 | 80 | 96 | 96 | 97 | 100 | 68 | 76 | –
COC(=O)c1cccc(C(=O)Nc2nc3ccc(F)cc3s2)c1 [Compound 03-110] | 109 | 93 | 109 | 88 | 62 | 99 | 108 | 86 | 83 | 77 | 84 | –
COc1ccc2sc(NC(=O)c3cccc(C(N)=O)c3)nc2c1 [Compound 03-113] | 89 | 101 | 103 | 110 | 70 | 102 | 105 | 46 | 109 | 74 | 96 | –
COc1ccc2nc(C(=O)Nc3ccccc3)sc2c1 [Compound 13-03] | – | – | – | – | – | – | – | – | – | – | – | residual kinase activity, PKBa (PKBa; [2]): 106; residual kinase activity, PKA (PKA; [2]): 97; residual kinase activity, PKCa (PKCa; [2]): 119; residual kinase activity, PKD1 (PKD1; [2]): 113; residual kinase activity, CAMKKb (CAMKKb; [2]): 91; residual kinase activity, CAMK1 (CAMK1; [2]): 94; residual kinase activity, PLK1 (PLK1; [2]): 93; residual kinase activity, CK2 (CK2; [2]): 97; residual kinase activity, PAK4 (PAK4; [2]): 58; residual kinase activity, BTK (BTK; [2]): 31; residual kinase activity, EPH-A2 (EPH-A2; [2]): 63
CC(=O)Nc1nc2ccc([N+](=O)[O-])cc2s1 [Compound 13-10] | – | – | – | – | – | – | – | 51 | – | – | – | remaining activity at 100 µM (PKBa): 101%; remaining activity at 100 µM (PKA; [1]): 99%; remaining activity at 100 µM (PKCa; [1]): 93%; remaining activity at 100 µM (PKD1; [1]): 82%; remaining activity at 100 µM (CAMKKb; [1]): 73%; remaining activity at 100 µM (CAMK1; [1]): 84%; remaining activity at 100 µM (PLK1; [1]): 96%; remaining activity at 100 µM (PAK4; [1]): 86%; remaining activity at 100 µM (BTK; [1]): 96%; remaining activity at 100 µM (EPH-A2; [1]): 65%
COc1cccc(NC(=O)Nc2nc3cc(O)ccc3s2)c1 [Compound 13-62] | – | – | – | – | – | – | – | – | – | – | – | residual kinase activity, PKBa (PKBa; [2]): 66; residual kinase activity, PKA (PKA; [2]): 104; residual kinase activity, PKCa (PKCa; [2]): 102; residual kinase activity, PKD1 (PKD1; [2]): 41; residual kinase activity, CAMKKb (CAMKKb; [2]): 25; residual kinase activity, CAMK1 (CAMK1; [2]): 8; residual kinase activity, PLK1 (PLK1; [2]): 98; residual kinase activity, CK2 (CK2; [2]): 24; residual kinase activity, PAK4 (PAK4; [2]): 22; residual kinase activity, BTK (BTK; [2]): 25; residual kinase activity, EPH-A2 (EPH-A2; [2]): 81
